# In ChEMBL document CHEMBL1135511, “Structure activity of 3-aryl-1,3-diketo-containing compounds as HIV-1 integrase inhibitors” (J Med Chem, 2002):
# Assays:
# [1] = target: T1, Human immunodeficiency virus type 1 integrase (Human immunodeficiency virus 1, UniProt Q7ZJM1)
# [2] = target: T1, Human immunodeficiency virus type 1 integrase; remark: listed apart in the source
# [3] = target: T1, Human immunodeficiency virus type 1 integrase; assay: Inhibitory effect on 3'-processing(3'-P) of proximal DNA in an extracellular HIV-1 integrase assay in experiment 2
# [4] = Inhibitory concentration by single cycle replication assay using envelope deficient HIV-1; type: functional, Homo sapiens
# [5] = target: T1, Human immunodeficiency virus type 1 integrase; assay: Inhibitory effect on strand transfer of proximal DNA into host DNA in an extracellular HIV-1 integrase assay in experiment 2
# [6] = target: T1, Human immunodeficiency virus type 1 integrase; assay: Inhibitory effect on strand transfer of proximal DNA into host DNA in an extracellular HIV-1 integrase assay in experiment 1
# [7] = target: T1, Human immunodeficiency virus type 1 integrase; assay: Inhibitory effect on 3'-processing(3'-P) of proximal DNA in an extracellular HIV-1 integrase assay in experiment 1
# T1 sequence (Q7ZJM1 whole entry): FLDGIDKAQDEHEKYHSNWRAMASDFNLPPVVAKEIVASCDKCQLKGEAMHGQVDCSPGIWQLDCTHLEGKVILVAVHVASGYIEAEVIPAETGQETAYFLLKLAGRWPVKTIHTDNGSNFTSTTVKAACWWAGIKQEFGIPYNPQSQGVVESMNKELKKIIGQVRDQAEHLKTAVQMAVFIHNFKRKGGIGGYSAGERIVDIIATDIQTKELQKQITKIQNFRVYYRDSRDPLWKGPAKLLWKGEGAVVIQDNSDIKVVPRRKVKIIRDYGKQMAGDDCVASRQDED
Compound,IC50 [1] [µM],IC50 [2] [µM],other results
COc1ccc(Cn2nnnc2C(=O)/C=C(\O)c2cc(OCc3ccccc3)cc(OCc3ccccc3)c2)cc1,> 100,> 100,–
O=C(O)C(=O)/C=C(\O)c1cccc(OCc2ccccc2)c1,0.35,–,IC50 [3]: 100 µM; IC50 [4]: 0.6 µM
O=C(O)C(=O)/C=C(\O)c1cccc(/C(O)=C/C(=O)C(=O)O)c1,1.83,7.8,–
O=C(O)C(=O)/C=C(\O)c1c[nH]c2ccc(Cl)cc12,0.52,–,–
O=C(O)C(=O)/C=C(\O)c1ccc(/C(O)=C/C(=O)C(=O)O)cc1,1.28,–,IC50 [3]: 7.5 µM; IC50 [7]: 7.2 µM
O=C(O)C(=O)/C=C(\O)c1cccc(Br)c1,–,> 100,IC50 [5]: 3 µM; IC50 [6]: 2 µM
O=C(O)C(=O)/C=C(\O)c1cc(OCc2ccccc2)cc(OCc2ccccc2)c1,0.48,> 1000,IC50 [4]: 2.3 µM
COc1ccc(Cn2nnnc2C(=O)/C=C(\O)c2c[nH]c3ccc(Cl)cc23)cc1,34,> 100,–
O=C(O)C(=O)/C=C(\O)c1cc(/C(O)=C/C(=O)C(=O)O)c2ccccc2n1,6.5,82,–

# Now from value to molecule, other results behind:
IC50 [1] [µM],IC50 [2] [µM],Compound,other results
6.9,> 100,CCOC(=O)C(=O)/C=C(\O)c1c[nH]c2ccc(Cl)cc12,–
> 100,> 100,COc1cc(Cn2nnnc2C(=O)/C=C(\O)c2c[nH]c3ccccc23)cc(OC)c1,–
–,> 100,O=C(O)C(=O)/C=C(\O)c1ccc(Oc2ccccc2)cc1,IC50 [5]: 15 µM; IC50 [6]: 7.8 µM
> 100,> 100,COc1ccc(Cn2nnnc2C(=O)/C=C(\O)c2c[nH]c3ccccc23)cc1,–
35,> 100,O=C(O)C(=O)/C=C(\O)c1cccc(NC(=O)c2ccccc2)c1,–
1.43,> 100,O=C(O)C(=O)/C=C(\O)c1c[nH]c2ccccc12,–
–,> 100,O=C(CC(=O)c1c[nH]c2ccccc12)c1nnn[nH]1,IC50 [5]: 2 µM; IC50 [6]: 1.9 µM
1.8,79,O=C(CC(=O)c1c[nH]c2ccc(F)cc12)c1nnn[nH]1,–
40,40,O=C(O)c1ccc2[nH]cc(C(=O)CC(=O)c3nnn[nH]3)c2c1,–
> 100,> 100,O=C(O)C(=O)/C=C(\O)c1ccnc2ccccc12,–
